Measured values as given in article PMC9916762, “Impact of Hydrophobic Chains in Five-Coordinate Glucoconjugate Pt(II) Anticancer Agents” (International Journal of Molecular Sciences, 2023).

How the values were obtained:
SVT2 cells [1] = experiment: Cellular Pt uptake by ICP-MS, SVT2; format: cell-based, murine; conditions: SVT2, 9.8 μM (IC50), 48 h, mean ± S.E.
Description: (§1) In particular, SVT2 and A431 were incubated for 48 h with 1-Me,Me and 1-Oct,Me, using the IC50 value concentrations. At the end of incubation, uptake and cell death mechanisms were evaluated. […] Finally, apoptosis was investigated by Western blot analyses using specific antibodies against pro-caspases 9 and 3.
To study the uptake of the complexes, SVT2 and A431 were incubated for 48 h in the presence of 1-Me,Me and 1-Oct,Me, respectively, at their IC50 concentrations. At the end of incubation, Pt determination was performed by inductively coupled plasma mass spectrometry (ICP-MS, Aurora M90; Bruker, Ettlingen/Leipzig, Germany) in the “Normal Sensitivity” mode. Calibration curves for the quantification of Pt ranged from 0.1 to 100 μg/L and were constructed daily by the analysis of the standard solutions prepared immediately before analysis. All standards used for analysis were prepared in HNO3 solution (2%, v/v). The internal standards were ^89Y and ^115In in both the calibration curve and sample analyses. The linearity was acceptable with an R^2 value greater than 0.9996. The treatment of the cells involved a wet digestion: after centrifugation, cell samples were wet digested with 1 mL of ultrapure HNO3 (67–69%, v/v). The mixture was gently boiled over a water bath (90 °C) for 3 h until a clear solution was obtained. […]

[2] = In-solution stability in aqueous solvents (1H NMR, UV-vis); format: physicochemical
Text: Attempts to evaluate their stability in aqueous solutions were complicated due the poor solubility of the complexes in water. Only for 1-Me,Me was it possible to prepare a solution in the mixed solvent D2O:DMSO-d6 10:1. […] To further study the stability of 1-Me,Me in aqueous solvents, UV–vis absorption spectra over time were collected under the two experimental conditions (20% ethylene glycol, 0.1 M sodium acetate buffer at pH 4.0 and 0.6 M sodium nitrate and 2.0 M sodium formate, 0.1 M Hepes buffer at pH 7.5), used to obtain crystals of the adducts with the model protein hen egg white lysozyme (HEWL). HEWL has been used as a model system to study the interaction with proteins of several metallodrugs, including cisplatin [31, 32, 33], oxaliplatin [34, 35], and carboplatin [31, 32]. […] Over time, a red shift of the λmax from 275 to 278 nm and of the peak at 313 nm, which shifted up to 317 nm, was observed. […] Such results convinced us that five-coordinate compounds are the species administered to cells if DMSO stock solutions are immediately diluted in an aqueous medium.
The stability of the 1-R,R’ complexes in DMSO was studied by dissolving 5 mg of each complex in 250 μL of DMSO-d6 and then diluting 200 μL of this solution with 300 μL of DMSO-d6. […] The ^1H-NMR spectra of the resulting solutions were recorded over time. […]

[3] = tested on: immortalized human keratinocytes (HaCaT); experiment: MTT cell viability assay, HaCaT; format: cell-based; conditions: 48 h incubation
Text: The immortalized human keratinocytes (HaCaT) were from Innoprot.

[4] = tested on: immortalized murine fibroblasts (BALB/c-3T3); conditions: read-out: IC50 BALB-c/3T3; 48 h incubation, MTT
Description: To evaluate their biological activity, the effects of the four complexes on cell viability were evaluated in eukaryotic cell models. For this purpose, experiments were performed on two cancer cell lines, i.e., human epidermoid carcinoma cells (A431) and murine fibroblast BALB/c-3T3 transformed with the SV40 virus (SVT2), and on two non-cancer cell lines, i.e., immortalized human keratinocytes (HaCaT) and immortalized murine fibroblasts (BALB/c-3T3). Cells were incubated with increasing concentrations of 1,Me-Me, 1,Oct-Me, 1,Me-Oct, and 1,Oct-Oct (from 0.1 to 50 μM). After 48 h of incubation, cytotoxicity was determined by MTT assay and cell survival was expressed as the percentage of viable cells in the presence of each complex compared with that of the untreated cells (Figure S19).
The immortalized human keratinocytes (HaCaT) were from Innoprot. Human The A431 epidermoid carcinoma, murine BALB/c-3T3, and SVT2 fibroblasts were from ATCC. Cells were cultured in Dulbecco’s modified Eagle’s medium (DMEM) (Sigma-Aldrich, St. Louis, MO, USA), supplemented with 10% foetal bovine serum (HyClone), 2 mM L-glutamine, and antibiotics, all from Sigma-Aldrich, under a 5% CO2-humidified atmosphere at 37 °C. To test the effects of the complexes on cell viability, cells were seeded at a density of 2.5 × 10^3 cells per well in 96-well plates. After 24 h, cells were incubated with increasing concentrations (from 0.1 to 50 μM) of the four complexes. After 48 h, cell viability was assessed by the MTT assay, as previously reported in [43]. Cell viability was expressed as the percentage of viable cells in the presence of the Pt complexes compared to the controls, represented by untreated cells and cells supplemented with identical volumes of DMSO. Each sample was tested in three independent analyses, each carried out in triplicate.

SVT2 cells [5] = experiment: Western blot of pro-caspases 9 and 3, SVT2; format: cell-based, murine; conditions: SVT2, 9.8 μM, 48 h
Description: as §1
The SVT2 were seeded on six-well plates at a density of 2.5 × 10^5 cells/well, whereas A431 was seeded at a density of 3 × 10^5 cells/well. After 24 h, cells were treated with 9.8 μM of 1-Me,Me or 2.3 μM 1-Oct,Me. After 48 h of incubation, Western blot analyses were performed by using pro-caspase 9 (Cell Signaling Technology, Danvers, MA, USA) and pro-caspase 3 (Abcam, Cambridge, MA, USA) antibodies, as reported by Del Giudice et al. Protein intensity levels were normalized using β-actin (Sigma-Aldrich, St. Louis, MO, USA). The chemiluminescence detection system was purchased from Bio-Rad (Hercules, CA, USA).

With “Platinum(1+), (2,9-dimethyl-1,10-phenanthroline- N1,N10)(η2-ethene)methyl[1,3-dihydro-1,3-dimethyl-4-[1-[2,3,4,6-tetrakis-O-(acetyl)-β-D-glucopyranosyl]-1H-1,2,3-triazol-4-yl]-2H-imidazol-2-ylidene], 1,1,1-trifluoromethanesulfonate [1-Me,Me]” as the substance, how does the Pt uptake (SVT2 cells [1]) read?
Its Pt uptake is 0.772 ± 0.010 Pt ng/10^6 cells.

What about the “stability, UV-vis spectra over time” value ([2]; 50 μM, 2.0 M sodium formate, 0.1 M Hepes buffer pH 7.5) of the same substance?
Its value is “stable over time”.

What about the “stability, NMR spectra over time” value ([2]; D2O:DMSO-d6 10:1, after 24 h) of the same substance?
The value was “no appreciable changes”.

And the IC50 [3]?
Its IC50 is 8.4 ± 1.7 µM.

And the IC50 [4]?
The IC50 was 26 ± 1 µM.

And the “pro-caspases 9 and 3 levels” value (SVT2 cells [5])?
The value was “significant decrease in pro-caspases 9 and 3 levels”.
